Test [1] deals with polymicrobial peritoneal sepsis induced by CLP. As to the kind of experiment: Cecal ligation and puncture (CLP) sepsis. As to conditions: ANP given after CLP. It is filed as in vivo, mouse (C57BL/6).
Test [2] concerns co-culture of hCART19 and Raji cells. The test is described as follows: In vitro co-culture of Raji and hCART19 cells. The note with it: Raji with hCART19 (1:5), 24 hours; metyrosine 2 mM or ANP 5 μg/ml. It counts as cell-based, human. From the text: Human CD19scFv-CD28-4-1BB-CD3ζ CAR-T cells (PM-CAR1003) were purchased from Promab Biotechnologies and maintained less than 7 days in AIM-V medium (GIBCO) supplemented with 300 IU/ml of hIL2 (Peprotech), 5% FBS and antibiotics (Car-T medium).

The next test relates to LPS-injected BALB/c mice. It counts as in vivo, mouse (BALB/c). As to the method:
LPS from Escherichia coli 0111:B4 was formulated as a 10 mg/ml solution in water and stored in −80° C. LPS was injected intraperitoneally at a dose of 3.5 mg/kg. […] Human ANP (Sigma) was dissolved in saline, loaded in mini-osmotic pumps (ALZET) with a release rate of 12 μg/day and implanted subcutaneously in the back of mice 12 hours before the LPS injection. Mice implanted with pumps loaded with saline served as controls. […] […] The control groups were injected with PBS. […] Hydration of mice was supported by daily subcutaneous injection of 0.5 ml saline.
LPS from Escherichia coli 0111:B4 was formulated as a 10 mg/ml solution in water and stored in −80° C. In Balb/C mice, LPS was injected intraperitoneally at a lethal dose of 3.5 mg/kg. […] In experiments with catecholamine pumps, a sublethal dose with 15-35% death rate was optimized in Balb/C mice. In TH+/+ and TH^ΔLysM mice with C57BL/6 background, a lethal dose was optimized at 5 mg/kg. Human ANP (Sigma) was dissolved in saline, loaded in mini-osmotic pumps (ALZET) with a release rate of 12 μg/day and implanted subcutaneously in the back of mice 12 hours before the LPS injection. Mice implanted with pumps loaded with saline served as controls. Metyrosine was freshly dissolved in PBS and injected IP at the indicated doses for three days prior to the LPS treatment. One hour before the LPS injection, metyrosine was injected into the lower abdomen contralateral to the side of LPS injection. The control groups were injected with PBS. For the following 3 days, metyrosine was injected IP at reduced indicated doses. Hydration of mice was supported by daily subcutaneous injection of 0.5 ml saline.

For test [3], the system named is anti-CD3 antibody-induced CRS in BALB/c mice. As to the kind of experiment: Anti-CD3 treatment induced CRS. It is filed as in vivo, mouse (BALB/c). As to the method: (§1) Metyrosine was freshly dissolved in PBS and injected IP at 60 mg/kg/day for three days prior to injection of anti-CD3 antibodies. […] Thirty minutes before the IP injection of the anti-mouse CD3 antibody (BioXcell, 145-2C11), metyrosine was IP injected at 60 mg/kg into the contralateral side. A single additional dose of 30 mg/kg metyrosine was injected IP on the following day. Control groups were injected with PBS at the same times.
as §1, with “times. For experiments with conditional TH knockout mice, 4-6 week-old LysMcre: TH fl/fl (TH^ΔLysM) mice with C57BL/6 background were used and LysMcre: TH+/+ mice of the same age were used as control. In these experiments, 200 μg/mouse anti-mouse CD3 antibody was injected IP.” for “times.”

Test [4] has as its system Raji-bearing NSGS mice with high tumour burden treated with hCART19. As to the kind of experiment: hCART19 treatment of Raji-bearing NSGS mice, high tumour burden. It counts as in vivo, mouse (NSGS). From the text:
Six to eight-week old female NSG-SGM3 mice (NOD.Cg-Prkdcscid Il2rgtm1Wjl Tg(CMVIL3,CSF2,KITLG)1Eav/MloySzJ, Stock #013062) were purchased from the Jackson Laboratory. Raji cells were transfected with a luciferase construct via lentivirus to create Raji-luc cells as described elsewhere (Bai et al., 2015 Neuro Oncol., 17:545). Human CD19scFv-CD28-4-1BB-CD3ζ CART cells (PM-CAR1003, CART19) from Promab Biotechnologies were maintained for less than 7 days in AIM-V medium (GIBCO) supplemented with 300 IU/ml of hIL2 (Peprotech), 5% FBS and antibiotics. One day before the injection of Raji cells, mice were irradiated at a dose of 2 Gy in a CIXD Xstahl device. One million Raji-luc cells were injected IV via tail vein on day zero. Six days later, tumor loads were assessed using a Xenogen instrument and 15×10^6 CART19 cells were injected IV. Metyrosine was injected IP at 60 mg/kg/day for three days before the CART19 injection. On the day of CART19 injection, a fourth dose of 60 mg/kg was given IP and the mice were subsequently injected four more times at daily intervals at 30 mg/kg.
Six to eight weeks old female NSG-SGM3 (NSGS) mice (NOD.Cg-Prkdcscid Il2rgtm1WjlTg (CMV-IL3, CSF2, KITLG) 1Eav/MloySzJ, Stock #013062) were purchased from the Jackson Laboratory. Raji cells were transfected with a luciferase construct via lentivirus to create Raji-luc cells. NSGS is a triple transgenic strain expressing human IL3, GM-CSF and SCF combine the features of the highly immunodeficient NOD scid gamma (NSG) mouse. One day before the injection of Raji cells, mice were irradiated at a dose of 2 Gy in a CIXD Xstahl device. In high tumor burden experiments in FIG. 5, 10^6 Raji-luc cells were injected IV via tail vein. Six days later, tumor loads were assessed using a Xenogen instrument and 15×10^6 hCART19 cells or untransduced T-cells were injected IV. In low tumor burden experiments in FIG. 6, 2×10^5 Raji-luc cells were injected IV via tail vein. Four days later, tumor loads were assessed using a Xenogen instrument and 15×10^6 hCART19 cells were injected IV. Metyrosine was injected IP at 60 mg/kg/day for three days before the hCART19 injection. On the day of CART19 injection, a fourth dose of 60 mg/kg was given IP and the mice were subsequently injected four more times at daily intervals at 30 mg/kg.

[5] abbreviates: 24 hours after anti-CD3, metyrosine pre-treatment.
[6] abbreviates: 24 and 72 hours after hCART19, metyrosine pre-treatment.

This is an account of results in US12564622B2, “Preventing cytokine release syndrome” (priority 2017, dated 2026).

Values joined by “and” are separate entries in the source; they are usually repeats but may differ in a detail not shown here. Identical values can stand only once. “Also recorded” adds a separate entry of the source.

As for `CC[C@H](C)[C@@H]1NC(=O)[C@H](CCCNC(=N)N)NC(=O)[C@H](CC(=O)O)NC(=O)[C@H](CCSC)NC(=O)[C@H](CCCNC(=N)N)NC(=O)CNC(=O)CNC(=O)[C@H](Cc2ccccc2)NC(=O)[C@@H](NC(=O)[C@H](CO)NC(=O)[C@H](CO)NC(=O)[C@H](CCCNC(=N)N)NC(=O)[C@H](CCCNC(=N)N)NC(=O)[C@H](CC(C)C)NC(=O)[C@@H](N)CO)CSSC[C@@H](C(=O)N[C@@H](CC(N)=O)C(=O)N[C@@H](CO)C(=O)N[C@@H](Cc2ccccc2)C(=O)N[C@@H](CCCNC(=N)N)C(=O)N[C@@H](Cc2ccc(O)cc2)C(=O)O)NC(=O)CNC(=O)[C@H](CC(C)C)NC(=O)CNC(=O)[C@H](CO)NC(=O)[C@H](CCC(N)=O)NC(=O)[C@H](C)NC(=O)CNC1=O` [ANP, atrial natriuretic peptide], the “survival after CLP, treatment after rather than before CLP” value in test [1] is given as “did not rescue the mice”.

For the molecule `C[C@](N)(Cc1ccc(O)cc1)C(=O)O` [metyrosine, α-methyl-tyrosine], in test [2], the catecholamine production entry is on record as “significantly decreased; also recorded: suppressed the catecholamine surge” and the cytokine production entry is listed as “significantly decreased; also recorded: blocked”. For the same molecule, in the test with LPS-injected BALB/c mice (LPS, metyrosine pre-treatment), the levels of catecholamines entry is “substantially reduced” and the “levels of inflammatory cytokines” value is “substantially reduced”. Also, the mice surviving with LPS-injected BALB/c mice (lethal dose LPS IP, metyrosine pre-treatment) is ~70% and ~75%. Moreover, the “efficacy at 20 mg/kg” value in the test with LPS-injected BALB/c mice (lethal dose LPS, metyrosine 20 mg/kg) is on record as “ineffective”. Also, the “dependence of efficacy on dose” value in the test on LPS-injected BALB/c mice (lethal dose LPS, metyrosine 20, 30, 40 mg/kg) is given as “dose-dependent”. Also, in test [3] (setting [5]), the “IL-2 and IFN-γ” value is “not significantly affected”; the circulating catecholamines result is on record as “reduced to near normal levels; also recorded: significantly reduced”; the “pro-inflammatory cytokines (IL-6, TNF-α, KC, MIP-2, MIP-1α)” value is reported as “major reductions”. Further, the “mice surviving (of mice pre-treated)” value in test [3] (anti-CD3 125 μg/mouse, metyrosine pre-treatment) was “eleven of the twelve; also recorded: twelve of the fifteen”. Also, in test [4] (setting [6]), the circulating catecholamines result is reported as “significantly reduced; also recorded: significantly lower”; the “circulating human and mouse cytokines” value is “significantly reduced; also recorded: significantly lowered”. The circulating catecholamines entry in test [4] (24 and 72 hours after hCART19, metyrosine pre-treatment, listed as Metyrosine) is given as “able to block that effect”. In addition, the final outcome in test [4] (high tumour burden, hCART19 plus metyrosine) is given as “eventually died with progressive lymphoma”. The plasma dopamine entry in test [4] (two time points after CART19 treatment) is given as “able to reduce dopamine production”.
